Values after ≈ are worked out from the molar mass of the structure shown. Where two headings read alike, the source gives them in different places.
Experiments:
P. aeruginosa AKR17 = experiment: in vitro antibacterial activity, agar plate dilution method (MIC); format: cell-based; details: for MIC: Pseudomonas aeruginosa, AKR17, 16 h, read-out: Minimum Inhibitory Concentration (MIC)
Experimental: (§1) One platinum loopful of each test microorganism incubated overnight in Mueller Hinton broth, was inoculated to Mueller Hinton agar (inoculum size: 10^6 CFU/ml). Such culture media contained antibacterial agents in various concentrations. After incubation at 37° C. for 16 hours, the minimum inhibitory concentrations (MIC: μg/ml) were measured.

P. aeruginosa MB5000 = experiment: as above; format: cell-based; details: for MIC: Pseudomonas aeruginosa, MB5000, 16 h, read-out: Minimum Inhibitory Concentration (MIC)
Experimental: as §1

P. aeruginosa MB5002 = experiment: as above; format: cell-based; details: for MIC: Pseudomonas aeruginosa, MB5002, 16 h, read-out: Minimum Inhibitory Concentration (MIC)
Experimental: as §1

Meth-R S. aureus = experiment: disc diffusion test, relative antibacterial potency to thienamycin; format: cell-based; details: ratio to thienamycin (=1.0), larger = higher activity
Experimental: (§2) The antibacterial activities of the compounds of the present invention described in the Examples, as representative examples of the compound of the present invention, were measured by a disc diffusion test by the method of Bauer et al. (Amer. J. Clin. Pathol., vol. 45, p. 493 (1966)). Thienamycin or imipenem was used as the internal standard.
(§3) MIC of each test compound was calculated from the diameter of the inhibition ring formed by the disc containing the test compound by using the calculation formula reported by Humphrey and Lightbown (J. Gen. Microbiol., vol. 7, p. 129 (1952)). For each microorganism, a geometrical average of MIC was obtained, and the activity ratio to thienamycin was calculated.
(§4) The antibacterial activities are represented by the ratio to thienamycin (=1.0), whereby the larger the numerical value, the higher the activities.

THM-R P. aeruginosa = experiment: as above; format: cell-based; details: ratio to thienamycin (=1.0), larger = higher activity
Experimental: as §2, §3, §4

DHP-I = DHP-I susceptibility (method by Kropp et al.); format: in vitro ADME
Text: The DHP-I susceptibility was quantitatively analyzed by the method by Kropp et al., Antimicrob. Agents Chemother., vol. 22, p. 62-70 (1982), whereby the smaller the numerical value representing the ratio to imipenem (=1.0), the higher the stability. The antibacterial potency and the DHP-I susceptibility of the compounds of the present invention were compared with imipenem and meropenem.

[1] = system: gram positive bacteria and gram negative bacteria; details: background; cited from earlier work
[2] = background, cited from earlier work
β-lactamase = details: background; cited from earlier work
[3] = due to the decomposition products; cited from earlier work
[4] = system: DHP-I in the human kidney; details: background; cited from earlier work
[5] = system: highly methicillin resistant Staphylococcus aureus which is resistant to imipenem and imipenem resistant Pseudomonas aeruqinosa; details: background; cited from earlier work
[6] = system: highly methicillin resistant Staphylococcus aureus; details: background; cited from earlier work
[7] = system: renal dehydropeptidase I (DHP-I); details: background; cited from earlier work
[8] = background; cited from earlier work
[9] = P. aeruginosa AKR17 (lactamase producing microorganism), Mueller Hinton agar, 10^6 CFU/ml, 37° C., 16 hours
[10] = P. aeruginosa MB5000, Mueller Hinton agar, 10^6 CFU/ml, 37° C., 16 hours
[11] = P. aeruginosa MB5002, Mueller Hinton agar, 10^6 CFU/ml, 37° C., 16 hours
[12] = ratio to imipenem (=1.0), smaller = higher stability

Row | Compound | MIC (P. aeruginosa AKR17; [9]) | MIC (P. aeruginosa MB5000; [10]) | MIC (P. aeruginosa MB5002; [11]) | DHP-I susceptibility (DHP-I; [12]) | Relative antibacterial potency to thienamycin (Meth-R S. aureus) | Relative antibacterial potency to thienamycin (THM-R P. aeruginosa) | other results
1 | C[C@@H](O)[C@H]1C(=O)N2C(C(=O)O)=C(S[C@@H]3CN[C@H](C4CCNC4)C3)[C@H](C)[C@H]12 (single isomer, unassigned) [Example 11 Diastereomer A] | 0.78 µg/mL (≈ 2.04 µM) | 0.1 µg/mL (≈ 0.262 µM) | 0.78 µg/mL (≈ 2.04 µM) | < 0.05 | 15.2 | 12.7 | 
2 | C[C@@H](O)[C@H]1C(=O)N2C(C(=O)O)=C(S[C@@H]3CN[C@H](C4CCN(C)C4)C3)[C@H](C)[C@H]12 (single isomer, unassigned) [Example 12 Diastereomer A] | 1.56 µg/mL (≈ 3.94 µM) |  | 1.56 µg/mL (≈ 3.94 µM) |  |  |  | 
3 | C[C@@H](O)[C@H]1C(=O)N2C(C(=O)O)=C(S[C@@H]3CN[C@H](CC4CN[C@H](C(=O)N(C)C)C4)C3)[C@H](C)[C@H]12 (stereo partly drawn) [Example 34, (1R,5S,6S)-6-[(R)-1-hydroxyethyl]-1-methyl-2-[(2R,4S)-2-[(2S)-2-(dimethylcarbamoyl)pyrrolidin-4-ylmethyl]pyrrolidin-4-ylthio]-1-carbapen-2-em-3-carboxylic acid] |  |  |  | 0.07 | 22.7 | 21.6 | 
4 | C[C@@H](O)[C@H]1C(=O)N2C(C(=O)O)=C(S[C@@H]3CN[C@H](C4CCNCC4)C3)[C@H](C)[C@H]12 [Example 43, (1R,5S,6S)-6-[(R)-1-hydroxyethyl]-1-methyl-2-[(2S,4S)-2-(piperidin-4-yl)pyrrolidin-4-ylthio]-1-carbapen-2-em-3-carboxylic acid] | 1.56 µg/mL (≈ 3.94 µM) | 0.1 µg/mL (≈ 0.253 µM) | 0.39 µg/mL (≈ 0.986 µM) |  |  |  | 
5 | C[C@@H](O)[C@H]1C(=O)N2C(C(=O)O)=C(S[C@@H]3CN[C@H](C4CCN(C)CC4)C3)[C@H](C)[C@H]12 [Example 49] | 1.56 µg/mL (≈ 3.81 µM) | 0.2 µg/mL (≈ 0.488 µM) | 0.78 µg/mL (≈ 1.9 µM) | 0.10 | 13.6 | 13.8 | 
6 | C[C@@H](O)[C@H]1C(=O)N2C(C(=O)O)=C(SCCN=CN)C[C@H]12 [Imipenem, (5R,6S,8R)-3-[[2-(formimidoylamino)ethyl]thio]-6-(1-hydroxyethyl)-7-oxo-1-azabicyclo[3.2.0]hept-2-en-2-carboxylic acid monohydrate, reference compound] |  |  |  | 1.0 | 2.57 | 2.0 | MIC (P. aeruginosa AKR17): 6.25 µg/mL; MIC (P. aeruginosa MB5000): 1.56 µg/mL; MIC (P. aeruginosa MB5002): 3.13 µg/mL; antibacterial activities [1]: equal or higher level than thienamycin against various types of bacteria; stability in the solid form or in an aqueous solution ([2]; compared with thienamycin): remarkably improved over thienamycin; β-lactamase resistance (β-lactamase): has β-lactamase resistance; toxicity against the kidney [3]: presents toxicity against the kidney due to the decomposition products; decomposition by DHP-I in the human kidney [4]: likely to be decomposed by DHP-I in the human kidney; treating effects against resistant bacteria [5]: does not show adequate treating effects against these resistant bacteria
7 | C[C@@H](O)[C@H]1C(=O)N2C(C(=O)O)=C(S[C@@H]3CN[C@H](C(=O)N(C)C)C3)[C@H](C)[C@H]12 [Meropenem, (4R,5S,6S,8R,2'S,4'S)-6-(1-hydroxyethyl)-4-methyl-3-[2-(N,N-dimethylaminocarbonyl)-pyrrolidin-4-ylthio]-7-oxo-1-azabicyclo[3.2.0]hept-2-en-2-carboxylic acid, reference compound] | 3.13 µg/mL (≈ 8.16 µM) | 0.39 µg/mL (≈ 1.02 µM) | 6.25 µg/mL (≈ 16.3 µM) |  | 3.22 | 6.9 | DHP-I susceptibility (DHP-I): 0.12; antibacterial activities against highly methicillin resistant Staphylococcus aureus [6]: not adequate; decomposition by / stability against DHP-I [7]: substantially improved
8 | C[C@@H](O)[C@H]1C(=O)N2C(C(=O)O)=C(SCCN)C[C@H]12 [Thienamycin, thienamycin] |  |  |  |  |  |  | antibacterial activities [1]: strong antibacterial activities over a wide range against gram positive bacteria and gram negative bacteria; decomposition by / stability against DHP-I [7]: likely to be decomposed by a certain enzyme in vivo such as renal dehydropeptidase I; chemical stability [2]: chemically unstable; recovery rate in the urine [8]: low; decomposition by DHP-I in the human kidney [4]: likely to be decomposed by DHP-I in the human kidney

Now from value to molecule, other results behind:

Row | MIC (P. aeruginosa AKR17; [9]) | MIC (P. aeruginosa MB5000; [10]) | MIC (P. aeruginosa MB5002; [11]) | DHP-I susceptibility (DHP-I; [12]) | Compound | Relative antibacterial potency to thienamycin (Meth-R S. aureus) | Relative antibacterial potency to thienamycin (THM-R P. aeruginosa) | other results
9 |  |  |  | < 0.05 | C[C@@H](O)[C@H]1C(=O)N2C(C(=O)O)=C(S[C@@H]3CN[C@H](C4CCNC4)C3)[C@H](C)[C@H]12 (single isomer, unassigned) [Example 11 Diastereomer B] | 12.3 | 11.5 | Minimum Inhibitory Concentration (MIC) (P. aeruginosa AKR17; [9]): 1.56 µg/mL; Minimum Inhibitory Concentration (MIC) (P. aeruginosa MB5000; [10]): 0.2 µg/mL; Minimum Inhibitory Concentration (MIC) (P. aeruginosa MB5002; [11]): 1.56 µg/mL
10 | 1.56 µg/mL (≈ 3.81 µM) | 0.2 µg/mL (≈ 0.488 µM) | 0.78 µg/mL (≈ 1.9 µM) |  | C[C@@H](O)[C@H]1C(=O)N2C(C(=O)[O-])=C(S[C@@H]3CN[C@H](C4CC[N+](C)(C)C4)C3)[C@H](C)[C@H]12 (single isomer, unassigned) [Example 13 Diastereomer A] |  |  | 
11 |  |  |  | < 0.05 | C[C@@H](O)[C@H]1C(=O)N2C(C(=O)[O-])=C(S[C@@H]3CN[C@H](C4CC[N+](C)(C)C4)C3)[C@H](C)[C@H]12 (single isomer, unassigned) [Example 13] |  | 11.5 | 
12 |  |  |  | < 0.05 | C[C@@H](O)[C@H]1C(=O)N2C(C(=O)O)=C(S[C@@H]3CN[C@H](CC4CN[C@H](C(N)=O)C4)C3)[C@H](C)[C@H]12 (stereo partly drawn) [Example 32, (1R, 5S,6S)-2-[(2R,4S)-2-[(2S)-2-carbamoylpyrrolidin-4-ylmethyl]pyrrolidin-4-ylthio]-6-[(R)-1-hydroxyethyl]-1-methyl-1-carbapen-2-em-3-carboxylic acid] |  | 19.5 | 

Reference: patent publication US5374720A, “2-(substituted pyrrolidinylthio)carbapenem derivatives” (Banyu Pharmaceutical Co., Ltd., priority 1990, dated 1994)
